One may read the bioavailability as the share of a dose that reaches the circulation, judged against a reference dose that is usually intravenous. Low readings indicate poor availability, high ones good availability.

Read-outs that look alike come from different tables or passages of the source.

Data set [1] can be described thus: Rat pharmacokinetics (IV, PO). It counts as in vivo. Particulars: for half-life / bioavailability: in vivo; for bioavailability: oral.
The nature of another data set: Plasma stability Rat. It counts as in vitro ADME.
Data set [2] can be described thus: Stability SGD, SIF w. Enzymes. It counts as in vitro ADME.
Another data set relates to Caco-2 cells. Nature of the data set: Caco-2 cell study (permeability, efflux). It counts as in vitro ADME. The settings on record: for Active efflux: Caco-2. The text has this: Caco-2 cells are used as a model of the intestinal epithelial barrier.
A further data set can be described thus: in vivo. The settings on record: mouse, po, 7 Days PO once daily MTD - mouse.
The next data set is described as follows: Plasma stability Mouse. It counts as in vitro ADME.
The nature of data set [3]: Dose escalation toxicity and MTD in mouse.
The subject of data set [4] is CAMP gene (encoding human cathelicidin). Nature of the data set: Induction test: ProLL-37-luciferase fusion protein expression in HT-29 CampLuc MN8 reporter cell line. Particulars: after 24h; luminescence relative to untreated cells. It counts as cell-based. Here is the method: FIG. 2: Induction test. […] Statistical analysis was performed by comparison of each compound-treatment conditions to the corresponding vehicle control using two-way ANOVA with Dunnett post-hoc test. Only significant changes were indicated, ** p<0.01, *** p<0.001, **** p<0.0001.
MN8CampLuc cells were handled according to Nylén et. al. with the following exception when predifferention of cells were performed before induction: […]

The test system of data set [5] is Enterotoxigenic Escherichia coli (ETEC) (ATCC ® 35401 ™, H10407). It counts as in vivo, mouse. Particulars: for Clinical observation (Mean Score) Hunched Posture / Clinical observation (Mean Score) Rough coat / Clinical observation (Mean Score) hyperpnea: 1 mg/kg PO q12h 9 days, 0=absent 1=present. How it is done: FIG. 3: Schematic protocol for neutropenia mouse model
A schematic of the experimental model is depicted in FIG. 3.
That experiment was performed in the presence of cyclophosphamide, which is known to cause febrile neutropenia due to translocation of bacteria to vital organs.

Where [6] appears, read: PO, read-out: Elimination T½ (min) PO - rat.
Setting [7] is: intravenous, PIV, read-out: Elimination T½ (min) PIV - rat.
[8] abbreviates: 1 mg/kg, PO, twice daily(q12h), 9 days.
Setting [9] is: individual animals, 1 mg/kg, PO, twice daily(q12h), 9 days.

On to `Nc1ccccc1NC(=O)c1ccc(OCc2cn(CCO)nn2)cc1` [HO56], for which, in data set [1], the “C_max IV - rat” value is 26 µM, the “V-d IV - rat” value is 3.07 L/kg and the bioavailability is 16%. In addition, in data set [1] (PO), the “C_max PO - rat” value came to 1.2 µM. For the same molecule, in [1] (setting [6]), the half-life turned out to be 132 min. Further, the half-life in data set [1] (setting [7]) was determined as 94 min. For the same molecule, the “Plasma stability Rat” value in “Plasma stability Rat” is on record as “High”. The “Stability SGD, SIF w. Enzymes” value in data set [2] is listed as “High”. For the same molecule, in the data set on Caco-2 cells, the “Caco-2 Permeability A-B dir.” value is reported as “Low” and the Active efflux result is “Yes”. In “in vivo”, the MTD at 7 days is > 50 mg/kg. Further, the “Plasma stability Mouse” value in the data set “Plasma stability Mouse” is on record as “High”. Besides, in [3], the “Dose Esc. Tox mouse PO” value is recorded as >200 mg/kg and the “Dose Esc. Tox mouse iv” value came to 10 mg/kg.
With `C#CCCCC(=O)Oc1ccc(C(=O)Nc2ccccc2N)cc1` [Compound 2.3, 4-[(2-aminophenyl)carbamoyl]phenyl hex-5-ynoate], the “expression of ProLL-37-luciferase fusion protein” value (shortened to “expression”) in data set [4] was “induced expression”.
Consider `C#CCOCC(=O)N(C)Cc1ccc(C(=O)Nc2ccccc2N)cc1` [Compound 2.1, N-(2-aminophenyl)-4-[(methyl{[(prop-2-yn-1-yl)oxy]acetyl}amino)methyl]benzamide], for which, in data set [4], the “expression” value is “induced expression”.
Turning to `CCC(=O)NCCOCC(=O)N(C)Cc1ccc(C(=O)Nc2ccccc2N)cc1` [Compound 2.2, N-(2-aminophenyl)-4-{[N-methyl-2-(2-propanamidoethoxy)acetamido]methyl}benzamide], the “expression” value in data set [4] is recorded as “induced expression”.
As for `Nc1ccccc1NC(=O)c1ccc(NC(=O)COCc2cn(CCO)nn2)cc1` [HO53], in data set [1], the “C_max IV - rat” value was found to be 21 µM, the “V-d IV - rat” value came to 1.7 L/kg and the bioavailability was determined as 3%. Further, the “C_max PO - rat” value in data set [1] (PO) is 0.09 µM. Besides, the half-life in data set [1] (setting [6]) came to 35 min. In addition, the half-life in data set [1] (setting [7]) came out at 126 min. Also, in “Plasma stability Rat”, the “Plasma stability Rat” value is “High”. For the same molecule, the “Stability SGD, SIF w. Enzymes” value in data set [2] is reported as “High”. For the same molecule, in the data set on Caco-2 cells, the “Caco-2 Permeability A-B dir.” value is recorded as “Low” and the Active efflux entry was “Yes”. Further, the MTD at 7 days in the data set “in vivo” is > 50 mg/kg. In addition, the “Plasma stability Mouse” value in the data set “Plasma stability Mouse” is “Low”. Further, in data set [3], the “Dose Esc. Tox mouse PO” value is recorded as >100 mg/kg and the “Dose Esc. Tox mouse iv” value is >100 mg/kg.
As for `Nc1ccccc1NC(=O)c1ccc(CNC(=O)OCc2cccnc2)cc1` [Entinostat, Pyridin-3-ylmethyl (4-((2-aminophenyl)-carbamoyl)benzyl)carbamate, reference compound], the “Body weights (Final Day) (Mean ± SD)” value in data set [5] (setting [8]) is reported as 26.5 ± 1.58. For the same molecule, the “Log10 CFU/g [Mean ± SD] Blood” value in data set [5] (setting [8]) is listed as “BLOQ”. In addition, in data set [5] (setting [8]), the “Log10 CFU/g [Mean ± SD] Kidneys” value is on record as “BLOQ”. Moreover, the “Log10 CFU/g [Mean ± SD] Liver” value in data set [5] (setting [8]) was “BLOQ”. Further, the “Log10 CFU/g [Mean ± SD] Spleen” value in data set [5] (setting [8]) is “BLOQ”. Also, the “Clinical observation (Mean Score) Hunched Posture” value in data set [5] (Day (0)), in data set [5] (Day (1)), in data set [5] (Day (2)), in data set [5] (Day (3)), in data set [5] (Day (4)) and in [5] (Day (5)) was 0.0 throughout. Also, the “Clinical observation (Mean Score) Hunched Posture” value in [5] (Day (6)), in data set [5] (Day (7)), in [5] (Day (−1)) and in data set [5] (Day (−2)) was 0.0 each time. The “Clinical observation (Mean Score) Rough coat” value in data set [5] (Day (0)) was 0.0; in data set [5] (Day (1)), 0.0; in [5] (Day (2)) it was 0.0; in [5] (Day (3)), 0.0; in data set [5] (Day (4)), 0.0; in data set [5] (Day (5)), 0.1. Moreover, the “Clinical observation (Mean Score) Rough coat” value in data set [5] (Day (6)) turned out to be 0.1; in [5] (Day (7)), 0.2; in data set [5] (Day (−1)), 0.0; in data set [5] (Day (−2)) it was 0.0. Also, the “Clinical observation (Mean Score) hyperpnea” value in data set [5] (Day (0)), in [5] (Day (1)), in data set [5] (Day (2)), in data set [5] (Day (3)), in data set [5] (Day (4)) and in [5] (Day (5)) was 0.0 in each case. In addition, the “Clinical observation (Mean Score) hyperpnea” value in data set [5] (Day (6)), in data set [5] (Day (7)), in data set [5] (Day (−1)) and in data set [5] (Day (−2)) was 0.0 throughout. Besides, the “Bacteria in treated animals” value in data set [5] (day 7, compound 1 at 50 mg/kg) is “BLOQ”. Besides, the “Kidney -Raw data on Vancomycin (32 μg/ml) plates” value in data set [5] (setting [9]) is recorded as “BLOQ”. Also, in data set [5] (setting [9]), the “Liver-Raw data on Vancomycin (32 μg/ml) plates” value is recorded as “BLOQ”. In addition, in data set [5] (setting [9]), the “Spleen -Raw data on Vancomycin (32 μg/ml) plates” value was “BLOQ”. For the same molecule, the “Blood -Raw data on Vancomycin (32 μg/ml) plates - on day 7 PI” value in data set [5] (individual animals, day 7 PI, 1 mg/kg, PO, twice daily(q12h), 9 days) is “BLOQ”. Also, the “clinical condition of animals” value in data set [5] (treated groups) is listed as “apparently normal”.

The record behind these values is US20250381157A1, “ANTIMICROBIAL COMPOUNDS” (priority 2022, published 2025).
